Data from paper PMC11603770, “Validating anti-inflammatory and cytotoxic properties of Fagonia cretica L. through metabolic, in vitro, and in silico profiling” (BMC Complementary Medicine and Therapies, 2024).
Values after ≈ are worked out from the molar mass of the structure shown.

Tests used:
Format in all cases: cell-based
[1] = tested on: nitric oxide formation by LPS-stimulated RAW 264.7 murine macrophage cells; assay: Nitric oxide inhibitory assay (Griess nitrite assay); settings: Mus musculus, RAW264.7; LPS-stimulated RAW 264.7, 24 h
Method: RAW 264.7 murine macrophage cells were stimulated by LPS (Lipopolysaccharide) to produce inflammatory mediators as NO, the produced nitrite (NO2-) was measured using the Griess reagent, RAW 264.7 murine macrophage-like cells were grown in phenol red-free RPMI-1640 containing 10% FBS. Cells were incubated for 24 h with LPS ([…]) in the presence of different concentrations of the plant extract. Then 50 µl of supernatant from each well of cell culture was transferred into 96-well microplates and equal volume of Griess reagent (1% sulfanilamide, 0.1% N-(1-naphthyl)-ethylenediamine hydrochloride, 2.5% H3PO4) was then added to the supernatant at room temperature. The absorbance at 550 nm was determined in UV-Vis microplate reader after 10 min. The concentrations of nitrite were derived from regression analysis using serial dilutions of sodium nitrite as a standard. Percentage of inhibition was calculated based on the ability of the extract to inhibit nitric oxide formation by cells compared with the control (cells in the media without the extract containing triggering agents and DMSO), which was considered as 0% inhibition.

[2] = tested on: CACO2 cells (intestinal carcinoma cell line); assay: MTT viability assay, CACO2; settings: Homo sapiens, Caco-2, 24 h
Method: The Cytotoxic activity was tested using the viability assay following the method reported by Mosmann, T., 1983 [21, 22]. HepG2 cells (liver carcinoma cell line), MCF-7cells (breast carcinoma cell line) and CACO2 cells (intestinal carcinoma cell line) (American Type Culture Collection ATCC, Rockville, MD) were applied through the tissue Culture Unit, the Egyptian Organization for Biological Products and Vaccines, Vacsera, Egypt. In brief, the tumor cell lines were suspended in medium at concentration 5 × 10^4 cell/ well in Corning® 96-well tissue culture plates and then incubated for 24 h. The alcoholic extract of F. cretica was then added into 96-well plates (three replicates) to achieve twelve concentrations. Six vehicle controls with media or 0.5% DMSO were run for each 96 well plate as a control. After incubating for 24 h, the number of viable cells was determined by the MTT test. Briefly, the media was removed from the 96 well plates and replaced with 100 µl of fresh culture RPMI 1640 medium without phenol red then 10 µl of the 12 mM MTT stock solution (5 mg of MTT in 1 ml of PBS) to each well including the untreated controls. […] Then, the optical density (OD) was measured at 590 nm with the microplate reader (SunRise, TECAN, Inc, USA) to determine the number of viable cells and the percentage of viability was calculated as follows: […]

Caspase-9 (human) = assay: Caspase-9 level ELISA in MCF-7
Method: To measure caspase-9 levels, DRG® Caspase-9 (human) ELISA (EIA-4860) kits were used. In brief, the breast cancer cell line (MCF-7) extracts were prepared after elevation of apoptosis. The extracts were suspended in lysis buffer, and incubated at room temperature for 60 min and then centrifuge for 15 min. The microwell strips were washed with 400 µl wash buffer, followed by addition of 100 µl of sample diluent in duplicate to all standard wells, 100 µl of sample diluent in duplicate to the blank wells, 50 µl of sample diluent to the sample, and 50 µl of each sample in duplicate to the sample wells. Then the detection antibody 50 µl was added to all wells and incubated for 2 h at room temperature. The diluted antirabbit-IgG-HRP (anti-rabbit-immunoglobulin G-horseradish peroxidase) 100 µl was added to all wells together with blank wells. TMB substrate solution 100 µl was added to all wells and incubated for 15 min. at room temperature. Finally, the enzyme reaction was stopped by adding 100 µl of the stop solution to all wells. The absorbance of each microwell was measured at 450 nm using a spectrophotometer. The absorbance of the samples and standard were recorded.

| IC50 [2] | SMILES | IC50 [1] | Caspase-9 level induction (Caspase-9 (human); MCF-7) | Caspase-9 (Conc.) (Caspase-9 (human); breast human carcinoma cell line (MCF-7), control 2.986 ± 0.31) |
| --- | --- | --- | --- | --- |
|  | O=C1O[C@H]([C@@H](O)CO)C(O)=C1O [Ascorbic acid] | 18.7 ± 0.77 µg/mL (≈ 106 µM) |  |  |
| 7.75 ± 0.4 µg/mL (≈ 14.3 µM) | COc1cccc2c1C(=O)c1c(O)c3c(c(O)c1C2=O)C[C@@](O)(C(=O)CO)C[C@@H]3O[C@H]1C[C@H](N)[C@H](O)[C@H](C)O1 [Doxorubicin] |  | 8.67 folds | 25.84 ± 0.39 ng/mL |
